According to patent EP2604600A1, “Isatin derivatives and their use in therapy” (priority 2011, dated 2013):
In brackets after ≈: the same amount, converted by molar mass. Where two headings read alike, the source gives them in different places.

Legend:
M. tuberculosis H37Rv [1] = test: Resazurin MIC assay, pan-sensitive strain; format: cell-based; conditions: Mycobacterium tuberculosis, 48 h
M. tuberculosis H37Rv [2] = test: MBC assay with H37Rv; format: cell-based; conditions: Mycobacterium tuberculosis, 504 h; performed with H37Rv; concentration that inhibits ≥ 99.9% of the initial bacterial inoculum; 3 weeks on 7H10 agar at 37°C
Protocol: The MBC assay with H37Rv was performed as an adjunct to the MIC assay and was used to determine the concentration of drug that is lethal to the target bacterium in vitro. A small aliquot (i.e., 10 µl) was removed from appropriate dilutions in the 96-well plate used to determine the MIC value with subsequent streaking on 7H10 agar plates. Five wells were selected, representing the well yielding the MIC value and 2 wells above and below the well that yielded the MIC value. After 3 weeks of incubation at 37°C, the agar plates were inspected for the presence or absence of growth. The MBC value is the concentration in µg/ml that inhibits ≥ 99.9% of the initial bacterial inoculum. Antimicrobials are usually regarded as bactericidal if the MBC is no more than four times the MIC. while the bacteriostatic agents have MIC values that are much lower than the MBC.

[3] = Precipitation noted during the MIC assay; format: physicochemical; conditions: observed in the MIC assay plates, 7H9 medium
Protocol: Stock solutions were prepared at 3.2 mg/ml which were then diluted as indicated below: 1. 20 µl of the 3.2 mg/ml stock of the test compound were added to a 96-well microtiter plate. 2. 2-fold dilutions were made by the addition of 20 µl of diluent.
3. Each dilution was further diluted 1:10 in sterile water (10 µl of dilution to 90 µl of sterile water). Note: The additional 10-fold dilution in water is required when DMSO is used as solvent to minimize toxicity to the bacteria. For uniformity in the assay procedure, this dilution step was used even if water or other solvents were used.
The following steps are followed in preparing the 96-wcll plates: • 1. 6.25 µl of each dilution were transferred to duplicate 96-well test plates. • 2. 93.75 µl of the cell suspension (∼ 10^4 bacteria) in 7H9 medium were added to the test plates. • 3. Positive, negative, sterility and resazurin controls were tested: • a. Positive controls include: appropriate antibiotics for each resistant strain and rifampicin and isoniazid for 113 7Rv • b. Negative controls include: • i. cell culture with solvent and water • i.i. cell culture only • c. Sterility controls include: • i. medium only • ii. medium with solvent and water • d. […] This control plate is needed to verify whether the compound reacts with resazurin that could possibly elicit fluorescence. • 4. […]

[4] = Table 3, standard test strain H37Rv, read-out: MIC Value (µg/ml) H37Rv*
[5] = H37RV, Table 2, Resazurin MIC assay, […], read-out: MIC H37Rv

SMILES | MIC (M. tuberculosis H37Rv [1]; [4]) | MIC (M. tuberculosis H37Rv [1]; [5]) | MBC (M. tuberculosis H37Rv [2]) | Comments (precipitation) [3]
O=C1Nc2ccc(Cl)cc2C1=NNC(=O)c1ccncc1 [Compound 3a] | 1.25 µg/mL (≈ 4.16 µM) | 1.25 µg/mL (≈ 4.16 µM) | 1.25 µg/mL (≈ 4.16 µM) | Precipitation observed at 10 µg/ml
O=C1Nc2ccc(F)cc2C1=NNC(=O)c1ccncc1 [Compound 3b, reference compound] | – | 10 µg/mL (≈ 35.2 µM) | – | –
O=C1Nc2ccc([N+](=O)[O-])cc2C1=NNC(=O)c1ccncc1 [Compound 3c] | 0.156 µg/mL (≈ 0.501 µM) | 0.156 µg/mL (≈ 0.501 µM) | 0.31 µg/mL (≈ 0.996 µM) | –
O=C1Nc2ccc(F)cc2C1=NNC(=O)c1ccc([N+](=O)[O-])o1 [Compound 3d] | – | 5 µg/mL (≈ 15.7 µM) | – | –
O=C1Nc2ccc(OC(F)(F)F)cc2C1=NNC(=O)c1ccc([N+](=O)[O-])o1 [Compound 3e] | 2.5 µg/mL (≈ 6.51 µM) | 2.5 µg/mL (≈ 6.51 µM) | 2.5 µg/mL (≈ 6.51 µM) | –
O=C(NN=C1C(=O)N(c2ccccc2)c2ccccc21)c1ccc([N+](=O)[O-])o1 [Compound 3f] | – | 5 µg/mL (≈ 13.3 µM) | – | –
O=C(NN=C1C(=O)N(Cc2ccccc2)c2ccccc21)c1ccc([N+](=O)[O-])o1 [Compound 3g] | 0.156 µg/mL (≈ 0.4 µM) | 0.156 µg/mL (≈ 0.4 µM) | 0.156 µg/mL (≈ 0.4 µM) | Precipitation observed at 10 µg/ml
O=C(NN=C1C(=O)N(Cc2ccccc2)c2ccc(Cl)cc21)c1ccc([N+](=O)[O-])o1 [Compound 3h] | – | 0.312 µg/mL (≈ 0.734 µM) | – | –
O=C(NN=C1C(=O)N(Cc2ccccc2)c2ccc(F)cc21)c1ccc([N+](=O)[O-])o1 [Compound 3i] | – | 0.156 µg/mL (≈ 0.382 µM) | – | –
Cc1ccc2c(c1)C(=NNC(=O)c1ccc([N+](=O)[O-])o1)C(=O)N2Cc1ccccc1 [Compound 3j] | – | 1.25 µg/mL (≈ 3.09 µM) | – | –
NNC(=O)c1ccncc1 [Isoniazid, reference compound] | 0.063 µg/mL (≈ 0.459 µM) | 0.063 µg/mL (≈ 0.459 µM) | – | –
CO[C@H]1/C=C/O[C@@]2(C)Oc3c(C)c(O)c4c(O)c(c(/C=N/N5CCN(C)CC5)c(O)c4c3C2=O)NC(=O)/C(C)=C\C=C\[C@H](C)[C@H](O)[C@@H](C)[C@@H](O)[C@@H](C)[C@H](OC(C)=O)[C@@H]1C [Rifampin, reference compound] | 0.0125 µg/mL (≈ 0.0152 µM) | 0.0031 µg/mL (≈ 0.00377 µM) | – | –
